Measured values: PubChem BioAssay (NCI)
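Interpolation was linear, between the two tested concentrations surrounding the appropriate level; five concentrations were tested over 48 hours in 96-well plates. TGI denotes the concentration required for complete inhibition of growth.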

Key:
Assay in all cases: NCI-60 cell line screen, 48 h
SF-268 CNS = system: SF-268 CNS
SNB-19 CNS = system: SNB-19 CNS
M14 melanoma = system: M14 melanoma
MCF7 breast = system: MCF7 breast
HS 578T breast = system: HS 578T breast
MDA-N = system: MDA-N
SK-MEL-28 melanoma = system: SK-MEL-28 melanoma
SK-MEL-2 melanoma = system: SK-MEL-2 melanoma
SR leukemia = system: SR leukemia
HOP-62 NSCLC = system: HOP-62 NSCLC
UACC-257 melanoma = system: UACC-257 melanoma
BT-549 breast = system: BT-549 breast
ACHN renal = system: ACHN renal
UO-31 renal = system: UO-31 renal
COLO 205 colon = system: COLO 205 colon
MDA-MB-231 breast = system: MDA-MB-231 breast
NCI-H522 lung = system: NCI-H522 lung
KM12 colon = system: KM12 colon
786-0 renal = system: 786-0 renal
MOLT-4 leukemia = system: MOLT-4 leukemia
HCC-2998 colon = system: HCC-2998 colon
NCI-H460 lung = system: NCI-H460 lung
RXF 393 renal = system: RXF 393 renal
PC-3 prostate = system: PC-3 prostate
HCT-15 colon = system: HCT-15 colon
NCI-H226 lung = system: NCI-H226 lung
SNB-75 CNS = system: SNB-75 CNS
OVCAR-3 ovarian = system: OVCAR-3 ovarian
SW-620 colon = system: SW-620 colon
MALME-3M melanoma = system: MALME-3M melanoma
K-562 leukemia = system: K-562 leukemia
OVCAR-8 ovarian = system: OVCAR-8 ovarian
OVCAR-5 ovarian = system: OVCAR-5 ovarian
HL-60(TB) leukemia = system: HL-60(TB) leukemia
U251 CNS = system: U251 CNS
SF-539 CNS = system: SF-539 CNS
SK-MEL-5 melanoma = system: SK-MEL-5 melanoma
NCI-H23 lung = system: NCI-H23 lung
T-47D breast = system: T-47D breast
MDA-MB-435 = system: MDA-MB-435
SK-OV-3 ovarian = system: SK-OV-3 ovarian
A498 renal = system: A498 renal
LOX IMVI melanoma = system: LOX IMVI melanoma
HOP-92 NSCLC = system: HOP-92 NSCLC
EKVX NSCLC = system: EKVX NSCLC
HCT-116 colon = system: HCT-116 colon
RPMI-8226 leukemia = system: RPMI-8226 leukemia
UACC-62 melanoma = system: UACC-62 melanoma
NCI/ADR-RES ovarian = system: NCI/ADR-RES ovarian
DU-145 prostate = system: DU-145 prostate
SN12C renal = system: SN12C renal
HT29 colon = system: HT29 colon
CAKI-1 renal = system: CAKI-1 renal
IGROV1 ovarian = system: IGROV1 ovarian
CCRF-CEM leukemia = system: CCRF-CEM leukemia
TK-10 renal = system: TK-10 renal
SF-295 CNS = system: SF-295 CNS
OVCAR-4 ovarian = system: OVCAR-4 ovarian
A549 NSCLC = system: A549 NSCLC

COc1ccc(C(OCC2OC(n3cnc4c(=O)n(Cc5ccccc5[N+](=O)[O-])nnc43)C(O)C2O)(c2ccccc2)c2ccc(OC)cc2)cc1 (stereo not drawn)
TGI (SF-268 CNS): > 100 µM | TGI (SNB-19 CNS): > 100 µM | TGI (M14 melanoma): > 100 µM | TGI (MCF7 breast): > 100 µM | TGI (HS 578T breast): > 94 µM | TGI (MDA-N): 47.6 µM | TGI (SK-MEL-28 melanoma): 69.5 µM | TGI (SK-MEL-2 melanoma): 60.6 µM | TGI (SR leukemia): 8.88 µM | TGI (HOP-62 NSCLC): > 100 µM | TGI (UACC-257 melanoma): > 100 µM | TGI (BT-549 breast): > 100 µM | TGI (ACHN renal): 97.9 µM | TGI (UO-31 renal): > 87.4 µM | TGI (COLO 205 colon): 34.5 µM | TGI (MDA-MB-231 breast): > 61.8 µM | TGI (NCI-H522 lung): 48.9 µM | TGI (KM12 colon): > 92.4 µM | TGI (786-0 renal): > 100 µM | TGI (MOLT-4 leukemia): 9.57 µM | TGI (HCC-2998 colon): 26.9 µM | TGI (NCI-H460 lung): > 53.1 µM | TGI (RXF 393 renal): > 59.5 µM | TGI (PC-3 prostate): > 100 µM | TGI (HCT-15 colon): 91.2 µM | TGI (NCI-H226 lung): 45.5 µM | TGI (SNB-75 CNS): > 100 µM | TGI (OVCAR-3 ovarian): > 62.3 µM | TGI (SW-620 colon): > 100 µM | TGI (MALME-3M melanoma): 49.2 µM | TGI (K-562 leukemia): > 57.4 µM | TGI (OVCAR-8 ovarian): > 100 µM | TGI (OVCAR-5 ovarian): > 100 µM | TGI (HL-60(TB) leukemia): 5.85 µM | TGI (U251 CNS): > 100 µM | TGI (SF-539 CNS): 34.1 µM | TGI (SK-MEL-5 melanoma): > 45.5 µM | TGI (NCI-H23 lung): > 90.8 µM | TGI (T-47D breast): > 100 µM | TGI (MDA-MB-435): > 91.4 µM | TGI (SK-OV-3 ovarian): > 100 µM | TGI (A498 renal): 34.5 µM | TGI (LOX IMVI melanoma): > 39.4 µM | TGI (HOP-92 NSCLC): 23.2 µM | TGI (EKVX NSCLC): > 100 µM | TGI (HCT-116 colon): 13.1 µM | TGI (RPMI-8226 leukemia): 15.7 µM | TGI (UACC-62 melanoma): 38.8 µM | TGI (NCI/ADR-RES ovarian): > 100 µM | TGI (DU-145 prostate): > 100 µM | TGI (SN12C renal): 45.7 µM | TGI (HT29 colon): 59.1 µM | TGI (CAKI-1 renal): > 56.7 µM | TGI (IGROV1 ovarian): > 71.2 µM | TGI (CCRF-CEM leukemia): 20.7 µM | TGI (TK-10 renal): 64.1 µM | TGI (SF-295 CNS): > 100 µM | TGI (OVCAR-4 ovarian): > 100 µM | TGI (A549 NSCLC): > 100 µM

Cc1ccc2nc(C=Nc3ccccc3Cl)cc(C)c2c1
TGI (SF-268 CNS): 40 µM | TGI (SNB-19 CNS): > 100 µM | TGI (M14 melanoma): 35.1 µM | TGI (MCF7 breast): 46.8 µM | TGI (HS 578T breast): 81.2 µM | TGI (MDA-N): 23.8 µM | TGI (SK-MEL-28 melanoma): 42 µM | TGI (SK-MEL-2 melanoma): > 100 µM | TGI (SR leukemia): 26.6 µM | TGI (HOP-62 NSCLC): > 100 µM | TGI (UACC-257 melanoma): 30.6 µM | TGI (BT-549 breast): 30.1 µM | TGI (ACHN renal): > 100 µM | TGI (UO-31 renal): 35.5 µM | TGI (COLO 205 colon): > 100 µM | TGI (MDA-MB-231 breast): 35.6 µM | TGI (NCI-H522 lung): 47.2 µM | TGI (KM12 colon): 35.9 µM | TGI (786-0 renal): 33.2 µM | TGI (MOLT-4 leukemia): 35.1 µM | TGI (HCC-2998 colon): > 100 µM | TGI (NCI-H460 lung): 38.6 µM | TGI (RXF 393 renal): 29.6 µM | TGI (PC-3 prostate): > 100 µM | TGI (HCT-15 colon): 38.1 µM | TGI (NCI-H226 lung): 48.8 µM | TGI (SNB-75 CNS): 56.2 µM | TGI (OVCAR-3 ovarian): 35.4 µM | TGI (SW-620 colon): 28.5 µM | TGI (MALME-3M melanoma): 61.9 µM | TGI (K-562 leukemia): > 100 µM | TGI (OVCAR-8 ovarian): 29.9 µM | TGI (OVCAR-5 ovarian): > 100 µM | TGI (HL-60(TB) leukemia): 18.4 µM | TGI (U251 CNS): 37.7 µM | TGI (SF-539 CNS): 33.7 µM | TGI (SK-MEL-5 melanoma): 29.5 µM | TGI (NCI-H23 lung): 46.4 µM | TGI (T-47D breast): 47.4 µM | TGI (MDA-MB-435): 28.5 µM | TGI (SK-OV-3 ovarian): > 100 µM | TGI (A498 renal): > 100 µM | TGI (LOX IMVI melanoma): 22.6 µM | TGI (HOP-92 NSCLC): 83 µM | TGI (EKVX NSCLC): > 100 µM | TGI (HCT-116 colon): 16.3 µM | TGI (RPMI-8226 leukemia): > 100 µM | TGI (UACC-62 melanoma): 30.4 µM | TGI (NCI/ADR-RES ovarian): 40.2 µM | TGI (DU-145 prostate): > 100 µM | TGI (SN12C renal): 28.6 µM | TGI (HT29 colon): 36.8 µM | TGI (CAKI-1 renal): > 100 µM | TGI (IGROV1 ovarian): 36.7 µM | TGI (CCRF-CEM leukemia): 52.8 µM | TGI (TK-10 renal): 98.7 µM | TGI (SF-295 CNS): 47.2 µM | TGI (OVCAR-4 ovarian): 92.9 µM | TGI (A549 NSCLC): > 100 µM
